In article PMC9250890 (Cell Reports, 2022):
“Also recorded” adds a separate entry of the source. Counter-ions that a name gives are not always drawn. Like-named read-outs stand apart in the source and are kept apart here.

Columns and labels:
HeLa-ACE2 cells [1] = assay: SARS2-PsV-induced multinucleated cell formation; format: cell-based; details: SARS2-PsV 30 min
HeLa-ACE2 cells [2] = assay: SARS2-PsV-induced PS externalization in HeLa-ACE2 cells; format: cell-based; details: for SARS2-PsV-induced PS externalization: 1 h; for PS externalization evoked by trypsin-pretreated SARS2-PsV: trypsin 10 μg/mL, 10 min, 37°C
human ANO6 = biological target: T1, human ANO6 (Homo sapiens, UniProt Q4KMQ2); assay: YFP fluorescence quenching-based anion channel assay, FRT-ANO6 cells; format: cell-based
T1 sequence (Q4KMQ2 1-931 isoform Q4KMQ2-2): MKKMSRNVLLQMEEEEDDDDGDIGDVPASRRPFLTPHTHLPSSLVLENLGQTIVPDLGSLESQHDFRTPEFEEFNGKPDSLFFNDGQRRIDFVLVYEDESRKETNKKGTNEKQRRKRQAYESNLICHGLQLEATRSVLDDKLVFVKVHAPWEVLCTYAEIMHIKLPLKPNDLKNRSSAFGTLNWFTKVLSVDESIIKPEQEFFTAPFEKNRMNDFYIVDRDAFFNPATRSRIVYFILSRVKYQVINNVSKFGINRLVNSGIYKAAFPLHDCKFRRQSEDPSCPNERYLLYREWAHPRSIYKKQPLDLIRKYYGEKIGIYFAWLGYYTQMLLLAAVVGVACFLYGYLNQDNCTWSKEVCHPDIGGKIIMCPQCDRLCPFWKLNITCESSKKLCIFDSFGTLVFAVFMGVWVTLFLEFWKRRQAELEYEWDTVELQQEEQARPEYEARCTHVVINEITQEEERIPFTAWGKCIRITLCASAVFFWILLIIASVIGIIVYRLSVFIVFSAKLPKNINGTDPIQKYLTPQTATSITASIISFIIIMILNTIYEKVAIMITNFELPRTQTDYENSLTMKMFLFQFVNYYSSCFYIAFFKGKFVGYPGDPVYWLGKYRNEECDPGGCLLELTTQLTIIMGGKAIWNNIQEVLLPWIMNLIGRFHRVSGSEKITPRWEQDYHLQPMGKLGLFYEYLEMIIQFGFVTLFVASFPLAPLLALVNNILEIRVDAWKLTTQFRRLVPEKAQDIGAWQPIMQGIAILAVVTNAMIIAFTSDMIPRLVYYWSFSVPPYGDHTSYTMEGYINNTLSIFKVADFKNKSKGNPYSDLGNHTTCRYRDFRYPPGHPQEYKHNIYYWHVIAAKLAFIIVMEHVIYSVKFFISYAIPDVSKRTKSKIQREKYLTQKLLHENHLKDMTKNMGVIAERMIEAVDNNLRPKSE

[3] = system: CHO-Spike / HEK 293T-ACE2-TMPRSS2 cells; format: cell-based; details: 10 μM
Calu-3 cells [4] = assay: Cell viability MTS assay, Calu-3 cells; format: cell-based, human; details: Calu-3 and Vero cells
hANO6 = details: 10 μM
human WT-CFTR = assay: CFTR short-circuit current in FRT-CFTR cells; format: cell-based; details: up to a 30-μM concentration
cytosolic Ca2+ signals [5] = assay: Ionomycin-induced cytosolic Ca2+ signals; format: cell-based
human ANO2 = biological target: T2, human ANO2 (Homo sapiens, UniProt Q9NQ90); assay: YFP quenching anion channel assay, FRT-ANO2 cells; format: cell-based
T2 sequence (Q9NQ90 1-998): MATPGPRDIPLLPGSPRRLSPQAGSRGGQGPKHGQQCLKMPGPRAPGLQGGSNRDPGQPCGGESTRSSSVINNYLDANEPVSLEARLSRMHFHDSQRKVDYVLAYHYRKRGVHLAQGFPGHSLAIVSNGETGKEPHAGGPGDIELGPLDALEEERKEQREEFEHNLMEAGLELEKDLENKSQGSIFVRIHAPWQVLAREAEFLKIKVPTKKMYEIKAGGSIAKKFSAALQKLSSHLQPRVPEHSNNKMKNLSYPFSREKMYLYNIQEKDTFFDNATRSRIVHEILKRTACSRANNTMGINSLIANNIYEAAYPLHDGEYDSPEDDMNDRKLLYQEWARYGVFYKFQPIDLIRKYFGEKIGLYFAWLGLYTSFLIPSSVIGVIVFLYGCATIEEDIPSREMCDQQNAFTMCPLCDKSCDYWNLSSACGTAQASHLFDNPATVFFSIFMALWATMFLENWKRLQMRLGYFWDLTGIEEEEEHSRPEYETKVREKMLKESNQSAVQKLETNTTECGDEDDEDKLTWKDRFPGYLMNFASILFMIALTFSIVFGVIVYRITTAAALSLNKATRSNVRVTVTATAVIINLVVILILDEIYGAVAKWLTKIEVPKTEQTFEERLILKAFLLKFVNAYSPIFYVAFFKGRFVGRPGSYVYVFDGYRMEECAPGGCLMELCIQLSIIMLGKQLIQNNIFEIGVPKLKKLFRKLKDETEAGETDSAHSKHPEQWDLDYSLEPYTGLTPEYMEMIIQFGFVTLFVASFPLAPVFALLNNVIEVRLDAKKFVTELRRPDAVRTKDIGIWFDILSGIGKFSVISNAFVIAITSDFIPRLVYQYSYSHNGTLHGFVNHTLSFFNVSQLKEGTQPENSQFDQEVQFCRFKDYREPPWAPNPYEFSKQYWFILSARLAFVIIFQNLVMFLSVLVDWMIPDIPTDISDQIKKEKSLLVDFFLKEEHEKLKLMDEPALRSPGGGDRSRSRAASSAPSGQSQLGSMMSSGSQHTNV

[6] = system: HEK 293T-ACE2-TMPRSS2 cells; assay: SARS2-PsV-induced cytosolic Ca2+ signals; format: cell-based; details: pretreatment: BAPTA-AM 3 μM, camostat 10 μM, A6-001 10 μM
SARS-CoV-2 [7] = assay: Viral replication of authentic SARS-CoV-2 in Calu-3 cells; format: cell-based
human ANO1 = assay: YFP quenching anion channel assay, FRT-ANO1 cells
[8] = system: HEK 293T-ACE2-TMPRSS2 cells; format: cell-based; details: 10 μM, ATP 100 μM
SARS-CoV-2 [9] = assay: Viral replication of authentic SARS-CoV-2 in Vero cells; format: cell-based; details: for IC50: read-out: IC50, viral replication, Vero, supernatant
Calu-3 cells [10] = assay: ATP-induced Ca2+ response in Calu-3 cells; format: cell-based, human; details: 10 μM, ATP 100 μM
ANO6 (TMEM16F) = biological target: T3, ANO6 (TMEM16F) (Homo sapiens, UniProt Q4KMQ2); assay: Whole-cell patch clamp of ANO6 currents in HEK 293T-ANO6 cells; format: cell-based
T3 sequence (Q4KMQ2 1-931 isoform Q4KMQ2-2): T1 sequence (Q4KMQ2 1-931 isoform Q4KMQ2-2)

SARS-CoV-2 [11] = assay: Viral replication of SARS-CoV-2 in primary human nasal epithelial; format: cell-based; details: 10 μM basolateral, 72 h, HNE
SARS-CoV-2 [12] = assay: Cellular viral RNAs by qPCR at 4 h post-infection in Vero cells; format: cell-based; details: 0.01 MOI
[13] = system: recombinant eGFP adenovirus (Ad-eGFP); assay: Adenovirus; format: cell-based; details: 10 μM; 1 MOI; 48 h; HEK 293T
[14] = biological target: T4, ANO6 phospholipid scramblase (Homo sapiens, UniProt Q4KMQ2); assay: Ionomycin-induced PS externalization; format: cell-based
T4 sequence (Q4KMQ2 1-931 isoform Q4KMQ2-2): T1 sequence (Q4KMQ2 1-931 isoform Q4KMQ2-2)

[15] = system: SARS-CoV-2 Spike pseudotyped virus (SARS2-PsV); assay: microbe, parasite or virus in culture; format: cell-based; details: for single-round infection of SARS2-PsV: BAPTA-AM 10 μM
HeLa-ACE2 cells [16] = assay: Authentic SARS-CoV-2-induced PS externalization in HeLa-ACE2 cells; format: cell-based; details: 10 μM; 1 h pretreatment; 10 MOI
[17] = system: PS scrambling induced by ionomycin; assay: Ionomycin-induced PS scrambling, camostat control; format: cell-based; details: camostat 100 μM, 1 h prior; ionomycin 10 μM, 10 min
SARS-CoV-2 [18] = details: HeLa-ACE2 cells; ref Shang et al., 2020; cited from earlier work
[19] = system: endogenous Cl- currents in HEK 293 cells; details: ref Braga et al., 2021; cited from earlier work
cytosolic Ca2+ signals [20] = details: ref Braga et al., 2021; cited from earlier work
[21] = 10 μM during infection and 4 h post-infection
[22] = 10 μM during the infection period alone

O=C(NCc1ccc(F)cc1)c1cccc(Nc2ccc(-c3ccccc3)nn2)c1 [A6-001, N-(4-fluorobenzyl)-3-((6-phenylpyridazin-3-yl)amino)benzamide]
multinucleated cell formation (HeLa-ACE2 cells [1]): inhibits; also recorded: significantly reduced | SARS2-PsV-induced PS externalization (HeLa-ACE2 cells [2]; 10 μM): strongly inhibited; also recorded: inhibit | PS externalization evoked by trypsin-pretreated SARS2-PsV (HeLa-ACE2 cells [2]): inhibits | IC50 (human ANO6; half-maximal inhibitory concentration [IC50], ANO6 ion channel, FRT-ANO6 cells, 10 μM ionomycin): 90 nM | membrane-fusion events ([3]; 8-h time-lapse): abolishes; also recorded: profoundly reduced | initial lipid-mixing event and cell-cell fusion ([3]; Video S3): eliminated | cell-cell adhesion ([3]; initial 1 h): does not affect; also recorded: not affecting | safety margin (Calu-3 cells [4]): > 100 | ionomycin-induced increase in Lact-C2-positive, PI-negative cell population (Q3) (hANO6; Jurkat-ANO6): reversed | ionomycin-induced increase in Lact-C2-positive, PI-negative cell population (Q3) (hANO6; Jurkat): reversed | CFTR currents (human WT-CFTR): did not affect | ionomycin-induced cytosolic Ca2+ signals (cytosolic Ca2+ signals [5]; up to 30 μM): did not affect | ANO6 selectivity against ANO2 (human ANO2): 90 fold | SARS2-PsV-induced cytosolic Ca2+ signals [6]: did not affect | viral reduction, qPCR (SARS-CoV-2 [7]; 10 μM, 48 h, […], Calu-3): 1/50 | ΔCt (SARS-CoV-2 [7]; 10 μM, 48 h, […], Calu-3): −13.5 | IC50 (SARS-CoV-2 [7]; Severe acute respiratory syndrome coronavirus 2, Calu-3, 48 h, read-out: IC50, viral replication): 970 nM | ANO6 selectivity against ANO1 (human ANO1): 460 fold | purinergic agonist (ATP)-induced Ca2+ response [8]: did not alter | viral reduction, plaque assay (SARS-CoV-2 [9]; 10 μM, 48 h, Vero): 1/500 | viral reduction, qPCR (SARS-CoV-2 [9]; 10 μM, 48 h, Vero): 1/150 | ΔCt (SARS-CoV-2 [9]; 10 μM, 48 h, Vero): −11.8 | IC50 (SARS-CoV-2 [9]; Severe acute respiratory syndrome coronavirus 2, Vero, 48 h): 930 nM | virus-induced cytolysis (SARS-CoV-2 [9]; Vero, 48 h, light microscopy): dose dependently reduced | IC50 (SARS-CoV-2 [9]): 740 nM | purinergic agonist (ATP)-induced Ca2+ response (Calu-3 cells [10]): did not alter | IC50 (ANO6 (TMEM16F)): 70 nM | average reduction in viral replications, plaque assay (SARS-CoV-2 [11]): 94% | reduction in cellular viral RNAs (SARS-CoV-2 [12]; [21]): 98% | ΔΔCt, cellular viral RNA (SARS-CoV-2 [12]; [21]): 5.58 | cellular viral reduction, authentic virus (SARS-CoV-2 [12]; [22]): 86% | ΔΔCt, cellular viral RNA (SARS-CoV-2 [12]; [22]): 2.84 | replications of the non-enveloped adenovirus [13]: did not affect | IC50 [14]: 910 nM | ionomycin-induced PS externalization ([14]; 10 μM, FRT-ANO6 cells): most effective | scramblase IC50 relative to that for ANO6 ion channel activity ([14]; larger): approximately 10 fold | cellular viral reduction, pseudotyped virus [15]: 78% | single-round infection of SARS2-PsV [15]: dose dependently inhibited | IC50 ([15]; Severe acute respiratory syndrome coronavirus 2, read-out: IC50, single-round infection): 420 nM

CCOC(=O)c1c(NCc2ccc(SC)cc2)c2cccc(C)c2[nH]c1=O [A6-004, ethyl 8-methyl-4-((4-(methylthio)benzyl)amino)-2-oxo-1,2-dihydroquinoline-3-carboxylate]
SARS2-PsV-induced PS externalization (HeLa-ACE2 cells [2]; 10 μM): strongly inhibited; also recorded: inhibit | IC50 on all examined ANOs (human ANO6; ANO1, ANO2 and ANO6): micromolar ranges | ionomycin-induced cytosolic Ca2+ signals (cytosolic Ca2+ signals [5]; at 30 μM): partially reduced

CC(=O)OCOC(=O)CN(CC(=O)OCOC(C)=O)c1ccccc1OCCOc1ccccc1N(CC(=O)OCOC(C)=O)CC(=O)OCOC(C)=O [BAPTA-AM, reference compound]
SARS2-PsV-induced PS externalization (HeLa-ACE2 cells [2]; 10 μM): nullified; also recorded: inhibits | authentic SARS-CoV-2 virus-evoked PS scrambling (HeLa-ACE2 cells [16]): suppressed | SARS2-PsV-induced cytosolic Ca2+ signals [6]: nullified | single-round infection of SARS2-PsV [15]: significantly reduced

CN(C)C(=O)COC(=O)Cc1ccc(OC(=O)c2ccc(NC(=N)N)cc2)cc1 [camostat, camostat mesylate, reference compound]
SARS2-PsV-induced PS externalization (HeLa-ACE2 cells [2]; 100 μM): reduced; also recorded: inhibits | PS externalization evoked by trypsin-pretreated SARS2-PsV (HeLa-ACE2 cells [2]): but not by trypsinized SARS2-PsV | PS scrambling induced by ionomycin [17]: did not affect | SARS2-PsV-induced cytosolic Ca2+ signals [6]: significantly reduced | SARS-CoV-2 cell entry (SARS-CoV-2 [18]): inhibits

CC(C)/N=c1\cc2n(-c3ccc(Cl)cc3)c3ccccc3nc-2cc1Nc1ccc(Cl)cc1 [clofazimine]
endogenous Cl- currents / Cl- channel activities [19]: did not affect

O=C(Nc1ccc([N+](=O)[O-])cc1Cl)c1cc(Cl)ccc1O [niclosamide]
endogenous Cl- currents / Cl- channel activities [19]: partial inhibitory effect | cytosolic Ca2+ signals (cytosolic Ca2+ signals [20]): reduced

CC[C@@H](C(=O)[C@@H](C)[C@@H](O)[C@H](C)[C@@H]1O[C@@H]([C@@H](CC)C(=O)O)CC[C@@H]1C)[C@H]1O[C@]2(C=C[C@@H](O)[C@]3(CC[C@@](C)([C@H]4CC[C@](O)(CC)[C@H](C)O4)O3)O2)[C@H](C)C[C@@H]1C [salinomycin]
endogenous Cl- currents / Cl- channel activities [19]: did not affect
